Values quoted from earlier work as cited in patent publication US20150231092A1, “NOVEL EFFERVESCENT SACHET FORMULATIONS OF DAPOXETINE AND A PDE5 INHIBITOR” (Sanovell IIac Sanayi Ve Ticaret Anonim Sirketi, priority 2012, published 2015).

Tests used:
[1] = following oral administration
[2] = following oral administration; remark: listed apart in the source

Row | SMILES | binding to plasma proteins [1] | onset of action [2] [min] | onset of action takes (second sentence; apparently action time) [2] | solubility in water
1 | CN(C)[C@@H](CCOc1cccc2ccccc12)c1ccccc1 [dapoxetine] | almost completely binding to plasma proteins | – | – | –
2 | CN1CC(=O)N2[C@H](c3ccc4c(c3)OCO4)c3[nH]c4ccccc4c3C[C@@H]2C1=O [tadalafil, (6R-trans)-6-(1,3-benzodioxol-5-yl)-2,3,6,7,12,12a-hexahydro-2-methyl-pyrazino[1′,2′:1,6]pyrido[3,4-b]indole-1,4-dione] | – | 15 | up to 36 hours | poorly soluble in water
